# In patent US9265253B2, “Use of macrocyclic picolinamides as fungicides” (DOW AGROSCIENCES LLC, priority 2013, dated 2016):
# Tests used:
# [1] = test system: Leptosphaeria nodorum; experiment: Wheat Glume Blotch (LEPTNO) disease control; assay type: in vivo; details: 1 Day Protectant; for pest or weed control at 100 ppm: Parastagonospora nodorum, topical, 24 h, read-out: Disease Control LEPTNO 1 DP
# Method: Technical grades of materials were dissolved in acetone, which were then mixed with nine volumes of water containing 110 ppm Triton X-100. The fungicide solutions were applied onto wheat seedlings using an automated booth sprayer to run-off. All sprayed plants were allowed to air dry prior to further handling. All fungicides were evaluated using the aforementioned method for their activity vs. all target diseases. Wheat leaf blotch and brown rust activity were also evaluated using track spray applications, in which case the fungicides were formulated as EC formulations, containing 0.1% Trycol 5941 in the spray solutions. Wheat plants (variety Yuma) were grown from seed in a greenhouse in 50% mineral soil/50% soil-less Metro mix until the first leaf was fully emerged, with 7-10 seedlings per pot. These plants were inoculated with an aqueous spore suspension of Septoria tritici either prior to or after fungicide treatments. After inoculation the plants were kept in 100% relative humidity (one day in a dark dew chamber followed by two to three days in a lighted dew chamber at 20° C.) to permit spores to germinate and infect the leaf. The plants were then transferred to a greenhouse set at 20° C. for disease to develop. When disease symptoms were fully expressed on the 1st leaves of untreated plants, infection levels were assessed on a scale of 0 to 100 percent disease severity. Percent disease control was calculated using the ratio of disease severity on treated plants relative to untreated plants. Wheat plants (variety Yuma) were grown from seed in a greenhouse in 50% mineral soil/50% soil-less Metro mix until the first leaf was fully emerged, with 7-10 seedlings per pot. These plants were inoculated with an aqueous spore suspension of Leptosphaeria nodorum 24 hr after fungicide treatments. After inoculation the plants were kept in 100% relative humidity (one day in a dark dew chamber followed by two days in a lighted dew chamber at 20° C.) to permit spores to germinate and infect the leaf. The plants were then transferred to a greenhouse set at 20° C. for disease to develop. Fungicide formulation, application and disease assessment followed the procedures as described in the Example A.
# [2] = test system: Venturia inaequalis; experiment: Apple Scab (VENTIN) disease control; assay type: in vivo; details: 1 Day Protectant; for pest or weed control at 100 ppm: Venturia inaequalis, topical, 24 h, read-out: Disease Control VENTIN 1 DP
# Method: Technical grades of materials were dissolved in acetone, which were then mixed with nine volumes of water containing 110 ppm Triton X-100. The fungicide solutions were applied onto wheat seedlings using an automated booth sprayer to run-off. All sprayed plants were allowed to air dry prior to further handling. All fungicides were evaluated using the aforementioned method for their activity vs. all target diseases. Wheat leaf blotch and brown rust activity were also evaluated using track spray applications, in which case the fungicides were formulated as EC formulations, containing 0.1% Trycol 5941 in the spray solutions. Wheat plants (variety Yuma) were grown from seed in a greenhouse in 50% mineral soil/50% soil-less Metro mix until the first leaf was fully emerged, with 7-10 seedlings per pot. These plants were inoculated with an aqueous spore suspension of Septoria tritici either prior to or after fungicide treatments. After inoculation the plants were kept in 100% relative humidity (one day in a dark dew chamber followed by two to three days in a lighted dew chamber at 20° C.) to permit spores to germinate and infect the leaf. The plants were then transferred to a greenhouse set at 20° C. for disease to develop. When disease symptoms were fully expressed on the 1st leaves of untreated plants, infection levels were assessed on a scale of 0 to 100 percent disease severity. Percent disease control was calculated using the ratio of disease severity on treated plants relative to untreated plants. Apple seedlings (variety McIntosh) were grown in soil-less Metro mix, with one plant per pot. Seedlings with two expanding young leaves at the top (older leaves at bottom of the plants were trimmed) were used in the test. Plants were inoculated with a spore suspension of Venturia inaequalis 24 hr after fungicide treatment and kept in a 22° C. dew chamber with 100% RH for 48 hr, and then moved to a greenhouse set at 20° C. for disease to develop. Fungicide formulation, application and disease assessment on the sprayed leaves followed the procedures as described in the Example A.
melting point [°C],Structure (SMILES),pest or weed control at 100 ppm [1] [%],pest or weed control at 100 ppm [2] [%],Disease Control LEPTNO 1 DP ([1]; 100 ppm),Disease Control VENTIN 1 DP ([2]; 100 ppm)
,CCCO[C@@H]1[C@@H](CCC(C)C)CCC[C@H](NC(=O)c2nccc(OC)c2OC(C)=O)C(=O)O[C@H]1C [Compound F64],80 to 100,0 to 80,,
,COc1ccnc(C(=O)N[C@H]2CCC[C@H](Cc3ccc(F)cc3)[C@@H](OCC3CC3)[C@H](C)OC2=O)c1OC(C)=O [Compound F67],80 to 100,0 to 80,,
,COc1ccnc(C(=O)N[C@H]2CCC[C@H](Cc3ccccc3)[C@@H](OCC(C)C)[C@H](C)OC2=O)c1OC(C)=O [Compound F70],80 to 100,0 to 80,,
,COCC[C@H]1CCC[C@H](NC(=O)c2nccc(OC)c2OC(C)=O)C(=O)O[C@@H](C)[C@@H]1Oc1ccccc1 [Compound F78],80 to 100,0 to 80,,
,COc1ccnc(C(=O)N[C@H]2CCC[C@H](CCBr)[C@@H](Oc3ccccc3)[C@H](C)OC2=O)c1OC(C)=O [Compound F80],,0 to 80,,
,CC[C@H]1CCC[C@H](NC(=O)c2nccc(OC)c2OC(C)=O)C(=O)O[C@@H](C)[C@@H]1Oc1ccccc1 [Compound F81],,0 to 80,,
,COc1ccnc(C(=O)N[C@H]2CCC[C@H](CC(F)F)[C@@H](Oc3ccccc3)[C@H](C)OC2=O)c1OC(C)=O [Compound F82],,0 to 80,,
,C=C[C@H]1CCC[C@H](NC(=O)c2nccc(OC)c2OC(C)=O)C(=O)O[C@@H](C)[C@@H]1Oc1ccccc1 [Compound F86],80 to 100,0 to 80,,
,CCO[C@@H]1[C@@H](Cc2ccccc2)CCC[C@H](NC(=O)c2nccc(OC)c2OC(C)=O)C(=O)O[C@H]1C [Compound F87],80 to 100,,,
,CCCO[C@@H]1[C@@H](Cc2ccccc2)CCC[C@H](NC(=O)c2nccc(OC)c2OC(C)=O)C(=O)O[C@H]1C [Compound F88],80 to 100,,,
,CCCO[C@@H]1[C@@H](CCC(C)C)CCC[C@H](NC(=O)c2nccc(OC)c2OCOC(C)=O)C(=O)O[C@H]1C [Compound F92],80 to 100,80 to 100,,
,COc1ccnc(C(=O)N[C@H]2CCC[C@H](Cc3ccc(F)cc3)[C@@H](OCC3CC3)[C@H](C)OC2=O)c1OCOC(C)=O [Compound F96],80 to 100,0 to 80,,
,COc1ccnc(C(=O)N[C@H]2CCC[C@H](Cc3ccc(F)cc3)[C@@H](OCC3CC3)[C@H](C)OC2=O)c1OCOC(C)=O [Compound F98],,,A (80-100),B (More than 0-Less than 80)
,COc1ccnc(C(=O)N[C@H]2CCC[C@H](Cc3ccccc3)[C@@H](Oc3ccccc3)[C@H](C)OC2=O)c1OCOC(C)=O [Compound F108],80 to 100,0 to 80,,
,CCCO[C@@H]1[C@@H](Cc2ccccc2)CCC[C@H](NC(=O)c2nccc(OC)c2OCOC(C)=O)C(=O)O[C@H]1C [Compound F109],80 to 100,80 to 100,,
,COc1ccnc(C(=O)N[C@H]2CCC[C@H](Cc3ccccc3)[C@@H](OC3CCCC3)[C@H](C)OC2=O)c1OCOC(C)=O [Compound F110],80 to 100,0 to 80,,

melting point [°C],Structure (SMILES),pest or weed control at 100 ppm [1] [%],pest or weed control at 100 ppm [2] [%],Disease Control LEPTNO 1 DP ([1]; 100 ppm),Disease Control VENTIN 1 DP ([2]; 100 ppm)
,COc1ccnc(C(=O)N[C@H]2CCC[C@H](CC3CCCC3)[C@@H](OCC3CC3)[C@H](C)OC2=O)c1OCOC(C)=O [Compound F117],80 to 100,80 to 100,,
,"COc1ccnc(C(=O)N[C@H]2CCC[C@H](CCF)[C@@H](OCC(C)C)[C@H](C)OC2=O)c1OCOC(C)=O [Compound F128, ((2-(((3S,7R,8R,9S)-7-(2-fluoroethyl)-8-isobutoxy-9-methyl-2-oxooxonan-3-yl)carbamoyl)-4-methoxypyridin-3-yl)oxy)methyl acetate]",80 to 100,0 to 80,,
,COCC[C@H]1CCC[C@H](NC(=O)c2nccc(OC)c2OCOC(C)=O)C(=O)O[C@@H](C)[C@@H]1Oc1ccccc1 [Compound F130],80 to 100,0 to 80,,
,COc1ccnc(C(=O)N[C@H]2CCC[C@H](CC(F)F)[C@@H](Oc3ccccc3)[C@H](C)OC2=O)c1OCOC(C)=O [Compound F138],,0 to 80,,
76 to 80,COc1ccnc(C(=O)N[C@H]2CCC[C@H](Cc3ccc(F)cc3F)[C@@H](OC(=O)c3ccco3)[C@H](C)OC2=O)c1OCOC(C)=O [Compound F144],80 to 100,80 to 100,,
48 to 53,COc1ccnc(C(=O)N[C@H]2CCC[C@H](Cc3ccc(F)cc3F)[C@@H](OCC(C)C)[C@H](C)OC2=O)c1OCOC(C)=O [Compound F145],80 to 100,80 to 100,,
,C=C[C@H]1CCC[C@H](NC(=O)c2nccc(OC)c2OCOC(C)=O)C(=O)O[C@@H](C)[C@@H]1Oc1ccccc1 [Compound F146],80 to 100,80 to 100,,
68 to 72,COc1ccnc(C(=O)N[C@H]2CCC[C@H](Cc3ccc(F)cc3F)[C@@H](OC(=O)c3ccco3)[C@H](C)OC2=O)c1OCOC(=O)C(C)C [Compound F157],80 to 100,0 to 80,,
,CCCO[C@@H]1[C@@H](CCC(C)C)CCC[C@H](NC(=O)c2nccc(OC)c2OCOC(=O)COCC)C(=O)O[C@H]1C [Compound F161],80 to 100,80 to 100,,
,CCOCC(=O)OCOc1c(OC)ccnc1C(=O)N[C@H]1CCC[C@H](Cc2ccc(F)cc2)[C@@H](OCC2CC2)[C@H](C)OC1=O [Compound F164],80 to 100,80 to 100,,
,CCCO[C@@H]1[C@@H](Cc2ccc(F)cc2)CCC[C@H](NC(=O)c2nccc(OC)c2OCOC(=O)COCC)C(=O)O[C@H]1C [Compound F167],,80 to 100,,
,CCOCC(=O)OCOc1c(OC)ccnc1C(=O)N[C@H]1CCC[C@H](Cc2ccccc2)[C@@H](OCC(C)C)[C@H](C)OC1=O [Compound F172],80 to 100,0 to 80,,
,CCCO[C@@H]1[C@@H](Cc2ccccc2)CCC[C@H](NC(=O)c2nccc(OC)c2OCOC(=O)COCC)C(=O)O[C@H]1C [Compound F174],80 to 100,80 to 100,,
,CCOCC(=O)OCOc1c(OC)ccnc1C(=O)N[C@H]1CCC[C@H](CCF)[C@@H](OCC(C)C)[C@H](C)OC1=O [Compound F181],80 to 100,,,
,CCOCC(=O)OCOc1c(OC)ccnc1C(=O)N[C@H]1CCC[C@H](CCOC)[C@@H](Oc2ccccc2)[C@H](C)OC1=O [Compound F183],80 to 100,0 to 80,,
,CCCO[C@@H]1[C@@H](Cc2ccccc2)CCC[C@H](NC(=O)c2nccc(OC)c2OC(=O)CCOC)C(=O)O[C@H]1C [Compound F198],80 to 100,,,

Structure (SMILES),melting point [°C],pest or weed control at 100 ppm [1] [%],pest or weed control at 100 ppm [2] [%],Disease Control LEPTNO 1 DP ([1]; 100 ppm),Disease Control VENTIN 1 DP ([2]; 100 ppm)
CCOCC(=O)OCOc1c(OC)ccnc1C(=O)N[C@H]1CCC[C@H](Cc2ccc(F)cc2F)[C@@H](OC(=O)c2ccco2)[C@H](C)OC1=O [Compound F193],70 to 75,80 to 100,80 to 100,,
